According to patent EP0449026A2, “Desoxynojirimycin derivatives, process for their preparation and their use in drugs” (BAYER AG, priority 1990, dated 1991):
Values after ≈ are worked out from the molar mass of the structure shown.

System: Visna-Virus
Experiment: Visna virus test: inhibition of the virus-induced cytopathic effect in infected sheep fibroblast cultures
Format: cell-based
Settings: Visna-maedi virus, Fibroblastenzellen vom Schaf, MOI ca. 0,05, 7 Tage bei 37°C 5% CO₂, concentration at which the cytopathic effect is inhibited by 50%, read microscopically
Text: In Zellkulturen, die mit Visna-Virus infiziert sind, treten 5 bis 10 Tage nach der Infektion ausgeprägte virusinduzierte, zytopathische Effekte auf. Durch Behandlung der infizierten Zellkulturen mit den erfindungsgemäßen Verbindungen konnte das Auftreten dieser zytopathischen Effekte verhindert werden.
Der Visna-Virus-Test wurde nach der Methode von O. Narayan et al., Journal of Infectious Diseases 135, 5, 1977, 800 - 806 durchgeführt. Dazu wurden die erfindungsgemäßen Verbindungen im Kulturmedium in nicht zytotoxischen Konzentrationen in 96er Microtiterplatten verdünnt. Anschließend wurden Fibroblastenzellen vom Schaf (5 x 10⁴ Zellen pro Napf) in Produktionsmedium zu jedem Näpfchen zugeführt. Jedes Näpfchen erhielt dann 50 µl einer Visna-Viruslösung mit einer Titer von ca. […] TCID₅₀ (TCID = tissue culture infectious dosis). Diese Virusdosis entspricht einer MOI (Multiplizität der Infektion) von ca. 0,05.
Unter diesen Infektionsbedingungen resultierte zwischen Tag 5 und Tag 10 in einer Infektionskontrolle ohne Substanz ein virusinduzierter, zytopathischer Effekt. Die infizierten und behandelten Zellen und die Kontrollzellen wurden 7 Tage bei 37°C 5% CO₂ inkubiert.
Bei Auftreten des virusinduzierten zytopathogenen Effektes in der unbehandelten Viruskontrolle wurden die Kulturen mit Formalin fixiert und anschließend mit einer Giemsa-Lösung gefärbt. Die inhibitorische Konzentration (IC₅₀) wurde mikroskopisch als die Konzentration ermittelt, bei der der zytopathische Effekt um 50% gehemmt wurde: im Vergleich zur unbehandelten Viruskontrolle, die 100% Zellzerstörung aufwies.

Compound	IC50
CC=CCN1CC(OC(=O)c2ccccc2)C(OC(=O)c2ccccc2)C(O)C1CO (stereo not drawn) [Beispiel 3, N-Butenyl-2,3-dibenzoyl-desoxynojirimycin]	50 µg/mL (≈ 118 µM)
CC=CCN1CC(OC(C)=O)C(OC(C)=O)C(O)C1CO (stereo not drawn) [Beispiel 6]	12.5 µg/mL (≈ 41.5 µM)
CC=CCN1CC(OC(=O)CC(C)C)C(OC(=O)CC(C)C)C(O)C1CO (stereo not drawn) [Beispiel 10]	20 µg/mL (≈ 51.9 µM)
